Experimental findings from patent publication US8686045B2 (priority 2005, dated 2014) are described below.

Entries after “also recorded” stand apart in the source; their conditions may differ. Where a SMILES comes first, the peptide text is derived from it. [ ]: non-standard residue; d: D form. pGlu = O=C1CC[CH](C(=O)O)N1

In data set [1] the test system is mouse E16 striatal neurons.
From the text: Bars indicate mean±s.e.m.
CM represents culture medium and QUIN represents quinolinic acid. Bars indicate mean±s.e.m and *** indicates p<0.005 student t test.
The K252a inhibitor is a well-characterized inhibitor of TrkB receptor activation.
Another data set deals with DARP32-positive neurons. Kind of data set: Quinolinic acid-induced death, DARP32-positive neurons only. In kind it is cell-based, mouse. The protocol:
FIG. 6C is a bar graph of the results of a study similar to that described for FIG. 6B only using Darp32-positive neurons.
A study similar to the one shown in FIG. 6B was conducted in which only DARP32-positive neurons were assessed. DARP32-positive neurons represent the population within the striatum that are particularly vulnerable in HD.

For data set [2], the system named is human SH-SY5Y neuroblastoma cells. An excerpt:
Exposure of SH-SY5Y cells to 1-methyl-4-phenylpyridinium (MPP^+) with resulting cell death is a well-characterized model of Parkinson's disease (PD). […] BDNF has also been previously shown to protect dopaminergic neurons. Further, MPP^+ causes a PD-like condition in primates.
For the Parkinson's disease model assays, human SH-SY5Y cells were used after terminal differentiation into a dopaminergic phenotype (Presgraves. S. P., et al. (2004) Exp Neruol 190, 157-170). Human SH-SY5Y neuroblastoma cells were propagated to confluence in Dulbecco's Modified Eagle's media (DMEM) supplemented with 10% fetal calf serum, 100 μg/mL penicillin, 100 μg/mL streptomycin, 0.25 μg/mL amphotericin B, and […] non-essential amino acids and then sub-cultured for differentiation. For differentiation, the cells were incubated in same media containing 10 μM retinoic acid for 3 days; then the media was removed and replaced with media containing 160 nM of the phorbol ester 12-O-tetradecanoyl-phorbol-13-acetate (TPA) for 3 days of differentiation. The cells were then administered a range dose of BD2-4 or BDNF (1×10^−12 M to […]) in DMEM for 30 mins for three days prior to addition of 100 μM MPP^+. Following transfer of MPP^+ to the media, sister cultures were tested at 6, 12, 24, and 48 hrs for the cytotoxicity of MPP^+ as measured by the MTT and lactate dehydrogenase method (LDH) assays which accurately measure different aspects of cell death. In addition, the neuroprotective effects of a fixed dose of BD2-4 and BDNF on MPP^+ induced cell death were tested for in the presence and absence of TrkB inhibitor K252a (200 nM).

Data set [3] relates to E16 mouse hippocampal neurons. As to the kind of experiment: Hippocampal neuron survival (morphology plus MTT conversion, 48 h). In kind it is cell-based. As to conditions: for EC50 / Emax: Mus musculus, Hippocampal neuron, 48 h; for EC50: read-out: EC50 of neuron survival dose-response; for Emax: read-out: intrinsic activity. Here is the method: FIGS. 3A-3E are a series of neuron survival dose response curves of BDNF (FIG. 3A), Compound 1 (also referred to as BD2-1, FIG. 3B) Compound 2 (also referred to as BD2-2, FIG. 3C), Compound 3 (also referred to as BD2-3, FIG. 3D), and Compound 4 (also referred to as BD2-4, FIG. 3E) using Mouse E16 hippocampal neurons. Survival was determined as the total number of cells in each well that were both morphologically intact and filled with blue formazan MTT conversion product (Longo, F. M., Manthorpe, M. Xie, Y. M., and Varon, S. (1997) J Neurosci Res. 48, 1-17). Counts were normalized to survival achieved with 25 ng/mL BDNF. Survival was assessed at 48 hrs.
Hippocampal neurons were prepared from E16-17 mouse embryos as previously described (Yang, T. et al. (2003) J Neurosci 23, 3353-3363). Low density cultures were initiated in poly-L-lysine coated A/2 plates by adding 25 μl of cell suspension (2000 neurons/well; 12,500 cells/cm^2), 25 μl of DMEM containing 10% FBS, and different concentrations of recombinant BDNF, NGF, or TrkB-binding compounds to each well.
After 48 hours in culture, cell survival was assessed as previously described (Longo, F. M., Manthorpe, M., Xie, Y. M., Varon, S. (1997) J Neurosci Res 48, 1-17) using a combination of standard morphological criteria along with visual determination of whether a given cell converted MTT to its blue formazan product. Briefly, the number of surviving neurons was determined by counting the total number of cells in each well that were both morphologically intact and filed with blue product (Longo F. M., Manthorpe. M., Xie, Y. M. Varon, S. (1997) J Neurosci Res 48, 1-17). For each neurotrophin or compound concentration, duplicate wells were counted and the resulting values averaged. […] Counts were normalized to survival achieved with 25 ng/ml BDNF or to baseline survival. Fitting of dose-responsive curves was performed with SIGMAPLOT™ obtained from SYSTAT Software Inc. (Richmond, Calif., United States of America).
In order to understand the mechanisms of action of the BDNF loop 2 mimetics and to test the conjecture that they work via the targeted receptor, TrkB, the dose-dependent relationships of the survival-promoting activities of the mimetics was compared to BDNF using embryonic hippocampal neurons in culture conditions in which BDNF promotes neural survival. In the cultures, neurotrophic activity was mediated by BDNF principally through TrkB and p75^NTR, as they express little TrkA (Brann, A. B., et al. (1999) J Neurosci 19, 8199-8206; Bui, N. T., et al. (2002) J Neurochem 81, 594-605).

Data set [4] concerns E16-17 hippocampal neurons. As to the kind of experiment: Aβ oligomer-induced neuronal degeneration (Alzheimer's disease model). Type of data set: cell-based, mouse. Here is the method: Neuronal cell survival in culture medium (CM) and with the addition of 10 μM AβScrambled oligomer are shown in the two bars on the left-hand side of the graph […]. Cells were also treated with 10 μM Aβ1-42 alone or in combination with NGF (100 ng/mL), NGF mimetic LM11A-31 (100 nM), a combination of NGF and LM11A-31, Compound 4 (BD2-4, 500 nM), Compound 24 (BD2-24, 500 nM), or either 20 or 100 ng/mL BDNF, as indicated under each bar. […] Mean+SE are shown and ***p<0.001 for survival above CM baseline.
The ability of the BDNF mimetics to prevent Aβ-induced neuronal degeneration was tested as a model of the compounds' ability to treat Alzheimer's disease. E16-17 hippocampal neurons were matured for 6 days and then incubated for 3 days with the indicated combinations of Aβ oligomer preparations (Dahigren, K. N., et al. (2002) J Biol Chem 277, 32046-32053), neurotrophins and neurotrophin mimetics. Following the three day incubation, neuronal survival was assessed using standard morphological criteria (Massa, S. M., et al. (2006) J Neurosci 26, 5288-5300.).

The next data set concerns the target T1, TrkC (Homo sapiens, UniProt Q16288).
T1 construct: expressed in transfected cells; host or cells: NIH3T3
Kind of data set: Trk phosphorylation at Y490, Western blot, NIH3T3 cells expressing TrkC. In kind it is cell-based. The protocol:
FIG. 5B is a digital composite image of Western blots monitoring TrkC activation as indicated by promotion of Trk phosphorylation at Y490 in NIH3T3 cells expressing TrkC. […] CM represents culture medium.
(§1) Western blots were performed as described previously (Yang, T. et al. (2003) J Neurosci 23, 3353-3363). Western blot signals were detected using the ECL Chemiluminescence System obtained by Amersham (Piscataway, N.J., United States of America) (Yang, T. et al. (2003) J Neurosci 23, 3353-3363). To detect the presence of anti-Trk antibodies, blots were probed with horseradish peroxidase-linked goat anti-rabbit IgG obtained from Amersham/Pharmacia Biotech (Piscataway, N.J., United States of America). Signals were detected by the ECL chemiluminescence system obtained from Amersham Biosciences (Piscataway, N.J., United States of America). To control for variation in protein loading, the blot was stripped and reprobed with β-actin monoclonal antibody obtained from Sigma (St. Louis, Mo., United States of America).
(§2) In order to assess the interactions of the BDNF loop 2 mimetic compounds with TrkB receptors, the ability of Compound 4 to activate TrkA, TrkB, and TrkC was compared in a series of Western blotting experiments.
In FIG. 5B, NIH3T3 cells expressing TrkC were used. The bottom panel indicates the total amount of TrkC present by probing with anti-TrkC antibodies.
In general terms: Immunoblotting shows a protein as a band on a membrane.

In the next data set the target is T2, TrkA (Homo sapiens, UniProt P04629).
T2 construct: expressed in transfected cells; host or cells: NIH3T3
As to the kind of experiment: Trk phosphorylation at Y490, Western blot, NIH3T3 cells expressing TrkA. In kind it is cell-based. The protocol:
(§3) CM represents culture medium.
as §1, §2
(§4) In the bottom two panels of FIG. 5A, NIH3T3 cells expressing TrkA were used.

Data set [5] concerns E16 mouse hippocampal neurons. Kind of data set: Hippocampal neuron survival (morphology plus MTT conversion, 48 h). The note with it: in the presence of a maximally effective BDNF concentration (50 ng/mL). Type of data set: cell-based.
Another data set concerns the target T3, TrkB (Homo sapiens, UniProt Q16620).
T3 construct: expressed in transfected cells; host or cells: NIH3T3
As to the kind of experiment: Trk phosphorylation at Y490, Western blot, NIH3T3 cells expressing TrkB. In kind it is cell-based. Here is the method:
as §3, §1, §2, §4

T1 sequence (Q16288 32-839, species assumed): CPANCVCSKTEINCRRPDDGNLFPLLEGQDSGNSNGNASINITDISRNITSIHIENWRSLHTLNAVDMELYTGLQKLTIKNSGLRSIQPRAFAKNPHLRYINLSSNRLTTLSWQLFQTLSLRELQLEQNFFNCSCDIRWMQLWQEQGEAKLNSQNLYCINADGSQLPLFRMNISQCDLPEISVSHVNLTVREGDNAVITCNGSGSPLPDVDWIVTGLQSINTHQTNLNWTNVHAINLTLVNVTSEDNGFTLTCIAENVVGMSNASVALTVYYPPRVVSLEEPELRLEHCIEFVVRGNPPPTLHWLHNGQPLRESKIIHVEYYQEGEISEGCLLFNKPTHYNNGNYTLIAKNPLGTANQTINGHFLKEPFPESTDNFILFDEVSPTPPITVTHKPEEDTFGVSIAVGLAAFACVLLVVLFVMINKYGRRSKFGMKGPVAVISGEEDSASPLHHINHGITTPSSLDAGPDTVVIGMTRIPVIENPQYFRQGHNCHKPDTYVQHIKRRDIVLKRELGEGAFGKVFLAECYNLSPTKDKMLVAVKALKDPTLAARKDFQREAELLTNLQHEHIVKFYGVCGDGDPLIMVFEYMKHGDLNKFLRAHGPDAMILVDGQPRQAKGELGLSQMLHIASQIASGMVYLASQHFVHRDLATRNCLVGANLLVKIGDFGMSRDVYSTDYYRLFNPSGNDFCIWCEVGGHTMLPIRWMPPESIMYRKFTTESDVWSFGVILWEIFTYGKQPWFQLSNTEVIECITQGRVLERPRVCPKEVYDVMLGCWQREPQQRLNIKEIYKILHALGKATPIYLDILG
T2 sequence (P04629 33-796, species assumed): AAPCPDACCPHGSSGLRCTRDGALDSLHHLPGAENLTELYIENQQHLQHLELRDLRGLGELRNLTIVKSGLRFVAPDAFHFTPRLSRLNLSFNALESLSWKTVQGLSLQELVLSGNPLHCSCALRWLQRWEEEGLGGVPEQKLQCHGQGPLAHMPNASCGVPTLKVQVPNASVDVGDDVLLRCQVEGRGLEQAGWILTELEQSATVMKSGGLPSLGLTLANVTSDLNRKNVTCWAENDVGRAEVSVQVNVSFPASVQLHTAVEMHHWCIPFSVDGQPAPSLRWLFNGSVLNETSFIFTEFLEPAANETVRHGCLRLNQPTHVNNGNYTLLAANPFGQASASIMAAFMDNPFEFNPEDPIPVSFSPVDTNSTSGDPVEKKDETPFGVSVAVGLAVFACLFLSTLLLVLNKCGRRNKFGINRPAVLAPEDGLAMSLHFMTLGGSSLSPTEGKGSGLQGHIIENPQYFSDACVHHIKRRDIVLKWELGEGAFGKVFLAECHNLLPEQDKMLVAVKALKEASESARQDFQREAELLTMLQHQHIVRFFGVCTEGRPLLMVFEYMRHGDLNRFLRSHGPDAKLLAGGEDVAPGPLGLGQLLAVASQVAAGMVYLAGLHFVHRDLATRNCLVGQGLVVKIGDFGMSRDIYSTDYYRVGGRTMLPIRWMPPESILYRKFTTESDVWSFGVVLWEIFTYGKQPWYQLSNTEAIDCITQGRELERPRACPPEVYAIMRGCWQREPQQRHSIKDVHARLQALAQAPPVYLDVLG
T3 sequence (Q16620 32-822, species assumed): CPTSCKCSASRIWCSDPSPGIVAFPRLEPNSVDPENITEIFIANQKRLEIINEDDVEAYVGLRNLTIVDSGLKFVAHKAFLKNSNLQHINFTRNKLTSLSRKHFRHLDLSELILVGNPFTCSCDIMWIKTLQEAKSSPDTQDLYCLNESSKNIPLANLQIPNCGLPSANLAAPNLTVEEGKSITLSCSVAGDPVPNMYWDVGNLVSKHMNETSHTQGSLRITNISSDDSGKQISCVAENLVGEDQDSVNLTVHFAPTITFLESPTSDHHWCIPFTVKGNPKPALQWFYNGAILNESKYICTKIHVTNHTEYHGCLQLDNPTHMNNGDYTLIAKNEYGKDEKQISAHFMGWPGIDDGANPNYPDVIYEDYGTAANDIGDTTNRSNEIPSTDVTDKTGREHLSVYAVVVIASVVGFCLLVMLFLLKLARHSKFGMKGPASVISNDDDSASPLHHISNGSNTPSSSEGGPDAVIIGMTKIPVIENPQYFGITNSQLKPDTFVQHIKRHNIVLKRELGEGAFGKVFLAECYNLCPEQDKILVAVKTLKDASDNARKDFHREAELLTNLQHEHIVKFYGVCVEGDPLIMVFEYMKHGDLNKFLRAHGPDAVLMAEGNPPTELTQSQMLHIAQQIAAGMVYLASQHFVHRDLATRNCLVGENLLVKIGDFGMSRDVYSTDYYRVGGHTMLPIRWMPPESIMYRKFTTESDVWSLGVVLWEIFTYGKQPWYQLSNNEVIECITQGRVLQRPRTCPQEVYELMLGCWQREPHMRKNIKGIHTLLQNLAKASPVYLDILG

`COC(=O)[C@@]1(O)C[C@H]2O[C@]1(C)n1c3ccccc3c3c4c(c5c6ccccc6n2c5c31)C(=O)NC4` [Compound K252a]: in data set [1] (K252a without BDNF or BD2-4), the “effect of K252a on quinolinic acid-induced death” value is recorded as “no effect on quinolinic acid-induced death”. In addition, in data set [1] (quinolinic acid-treated striatal neurons), the “effect of K252a on prevention of death by BDNF and BD2-4” value is “block the ability of BDNF and BD2-4 to prevent death”. Besides, the “effect of K252a on prevention of cell death by BDNF and BD2-4” value in the data set on DARP32-positive neurons (DARP32-positive neurons) was “decreased the ability of BDNF and BD2-4 to prevent cell death”. Besides, the “effect on cell survival, inhibitor alone” value in data set [2] (K252a (200 nM) versus culture medium alone) is “small effect on lowering cell survival”.
In general, EC50 refers to the concentration at which the effect is half-maximal. As to `COC(=O)C(Cc1c[nH]c2ccccc12)NC(=O)C(Cc1c[nH]cn1)NC(=O)C1CCC(=O)N1` (stereo not drawn) [Compound 1] ([pGlu]-His-Trp-OMe; configuration not given here), in data set [3], the concentration for a half-maximal effect (EC50) lay within 0.1 to 1 nM and the Emax lay in the range of 50 to 200%.
With `COc1ccc(-c2csc(N/N=C/c3ccc(O)cc3O)n2)cc1` [Compound 24], the “blocking of Aβ-induced degeneration” value in data set [4] was “as effective as BDNF in blocking Aβ-induced degeneration”.
`CC(=O)Nc1ccc(/C=C(\C#N)c2nn(CCO)c(N)c2C#N)cc1` [Compound 3]: in [3], the EC50 was 0.1 to 1 nM and the Emax lay within 50 to 200%.
Take `O=C(O)c1cccnc1C(=O)O` [quinolinic acid]: in data set [1] (quinolinic acid at 7.5 mM versus culture medium alone), the death of neurons result is listed as “approximately 50%”.
On to `NC(=O)NN=C1c2cc(S(=O)(=O)NCCO)ccc2-c2ccc(S(=O)(=O)NCCO)cc21` [Compound 2], for which, in [3], the concentration for a half-maximal effect (EC50) was 0.1 to 1 nM and the Emax is 50 to 200%.
For `C[n+]1ccc(-c2ccccc2)cc1` [MPP^+, 1-methyl-4-phenylpyridinium], the “cell death, toxin alone” value in [2] (MPP+ 100 μM) is listed as “promotes death of essentially all cells”.
Consider `CC[C@H](C)[C@H](N)C(=O)NCCN1CCOCC1` [LM11A-31, reference compound], for which the “blocking of Aβ-induced degeneration” value in data set [4] is “blocked Aβ-induced degeneration”. In data set [4] (LM11A-31 100 nM plus NGF 100 ng/mL, 10 μM Aβ1-42), the “blocking activity in combination with NGF” value is “blocked by NGF”.
On to `O=C(NCCO)c1cc(C(=O)NCCO)cc(C(=O)NCCO)c1` [Compound 4], for which the “protection of DARP32-positive neurons” value in the data set on DARP32-positive neurons (quinolinic acid-induced death) is recorded as “protects DARP32-positive neurons with an efficacy similar to that of BDNF”. For the same molecule, the “prevention of death of hippocampal neurons / neurotrophic effect” value in data set [3] (E16 hippocampal neurons) is given as “neurotrophic effects similar to that of BDNF; also recorded: prevents the death of E16 hippocampal neurons”. Besides, in data set [3], the concentration for a half-maximal effect (EC50) was in the range of 0.1 to 1 nM and the Emax fell in the range of 50 to 200%. In addition, the “TrkC activation (Trk phosphorylation at Y490)” value on TrkC is listed as “do not activate TrkC”. Moreover, at TrkA, the “TrkA activation (Trk phosphorylation at Y490)” value is reported as “not TrkA; also recorded: do not”. Also, the “block of death-inducing activity of MPP+” value in data set [2] (MPP+ 100 μM) is given as “significantly blocked to a similar extent”. Moreover, the “effect on BDNF activity (partial agonism)” value in [5] was “partial agonist of BDNF; also recorded: causes an inhibition of BDNF activity”. Further, the “blocking of Aβ-induced degeneration” value in data set [4] is recorded as “as effective as BDNF in blocking Aβ-induced degeneration”. In addition, on TrkB, the “TrkB activation (Trk phosphorylation at Y490)” value is recorded as “activate TrkB”.
